Experiments:
[1] = Absorption and fluorescence spectra of probe and HMRG; format: physicochemical
From the text: The absorption spectra and fluorescence spectra of compound 1 (GP-HRMG) having a glycine-proline dipeptide site synthesized in Example 1 and hydroxymethyl rhodamine green (HRMG) not having a dipeptide site were each measured.

[2] = tested on: human esophageal squamous cell carcinoma cells (KYSE30, KYSE270, KYSE140, KYSE520, KYSE150, KYSE 1170); assay: Live cell imaging in cultured esophageal cancer cells; format: cell-based; details: FIG. 5
Procedure: Imaging was conducted over time after adding GP-HMRG (compound 1) to six types of human esophageal squamous cell carcinoma cells.
As human esophageal squamous cell carcinoma cells, two highly differentiated types (KYSE30, KYSE270), two moderately differentiated types (KYSE140, KYSE520), and two lowly differentiated types (KYSE150, KYSE 1170) were cultured for two days at 37° C., 5% CO2 using a μ-Slide 8 well.

DPP-IV = DPP-IV (Homo sapiens, UniProt P27487); assay: DPP-IV assay by fluorescent probe (absorption/fluorescence change, HPLC); format: biochemical
Procedure: Next, DPP-IV was caused to act on compound 1, and the changes in the absorption spectrum and fluorescence spectrum were measured. The results are shown in FIG. 1 (the concentration of compound 1 was 3.5 μM).
Similarly, DPP-IV was caused to act on compound 1, and analysis was conducted by HPLC chromatography.
In addition to compound 1, fluorescence assays were conducted on compounds 2-6 synthesized in the same way in Example 1. For the solution conditions, a solution comprising 18 μL of solution comprising a fluorescent probe concentration of 1.1 μM and 20 mM Tris HCl buffer (pH 7.1), and 2 μL of solution comprising DPP-IV and 20 mM Tris HCl buffer was used. The results obtained by adding DPP-IV to each solution containing a fluorescent probe and measuring the increase in the fluorescence intensity are shown in FIGS. 3 and 4 (excitation wavelength 501 nm, fluorescence wavelength 524 nm). FIG. 3 is a graph snowing the fluorescence intensity increase rate six minutes after DPP-IV addition; FIG. 4 is a graph plotting the time dependence of the fluorescence intensity.

[3] = tested on: human esophageal cancer surgical specimens and ESD specimens; assay: Imaging of human esophageal surgical specimens and ESD specimens; details: surgical specimen; probe 50 μM with DPP-IV inhibitor, adhered five minutes; FIG. 10
Procedure: Esophageal specimens from patients who underwent surgery and endoscopic submucosal dissection (ESD) for esophageal cancer were brought immediately after removal in each treatment (meaning surgical specimens and ESD specimens, respectively) to an imaging room, and imaging was conducted over time after spraying the specimens directly with various fluorescent probes (compounds 1-6). For surgical specimens, 10 μL of a DMSO solution (10 mM) of the various fluorescent probes was dissolved in 2 mL of RPMI 1640 (phenol red-free) (final probe concentration 50 μM), and imaging was conducted using a Maestro In Vivo Imaging System Ex after spraying the fluorescent probe on the specimen using a spray tube for an endoscope. For ESD specimens, 3 μL of a DMSO solution (10 mM) of the various fluorescent probes was dissolved in 600 μL of RPMI 1640 (phenol red-free) (final probe concentration 50 μM), and imaging was conducted using a Maestro In Vivo Imaging System Ex after adding the fluorescent probe dropwise to the specimen.
Specifically, gauze impregnated with 5 μL of a DMSO solution (10 mM) of EP-HMRG (compound 2) dissolved in 1 mL of RPMI 1640 (phenol red-free) (final probe concentration 50 μM) and gauze impregnated with 5 μL of a DMSO solution (10 mM) of EP-HMRG (compound 2) and 5 μL of a DPP-IV inhibitor (10 mM) dissolved in 1 mL of RPMI 1640 (phenol red-free) were used. […]

Chain of DPP-IV (P27487 whole entry, species assumed): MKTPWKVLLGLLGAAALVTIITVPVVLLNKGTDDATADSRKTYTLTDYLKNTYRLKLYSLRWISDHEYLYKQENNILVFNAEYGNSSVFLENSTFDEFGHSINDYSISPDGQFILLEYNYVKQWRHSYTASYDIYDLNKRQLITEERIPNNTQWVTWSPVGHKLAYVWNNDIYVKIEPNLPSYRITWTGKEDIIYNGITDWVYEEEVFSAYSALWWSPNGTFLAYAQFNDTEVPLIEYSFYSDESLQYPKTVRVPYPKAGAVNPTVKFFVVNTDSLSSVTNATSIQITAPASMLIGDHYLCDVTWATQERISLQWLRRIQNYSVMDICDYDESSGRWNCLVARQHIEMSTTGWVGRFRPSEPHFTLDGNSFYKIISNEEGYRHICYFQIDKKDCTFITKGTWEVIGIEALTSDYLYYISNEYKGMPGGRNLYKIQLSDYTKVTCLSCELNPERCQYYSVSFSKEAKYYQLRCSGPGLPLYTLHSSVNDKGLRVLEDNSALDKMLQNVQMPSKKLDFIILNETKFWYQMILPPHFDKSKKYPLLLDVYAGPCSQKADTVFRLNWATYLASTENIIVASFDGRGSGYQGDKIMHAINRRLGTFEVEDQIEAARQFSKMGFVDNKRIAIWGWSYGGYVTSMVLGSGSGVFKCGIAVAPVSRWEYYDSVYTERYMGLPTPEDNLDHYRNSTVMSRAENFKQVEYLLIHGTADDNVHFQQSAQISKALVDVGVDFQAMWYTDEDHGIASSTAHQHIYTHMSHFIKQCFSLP

| Molecule | Fluorescence quantum yield [1] | Maximum absorption wavelength [1] | Maximum fluorescence wavelength [1] | pKcycl [1] | Molar extinction coefficient at pH 7.4 [1] | Fluorescence intensity in live cells with DPP-IV inhibitor added ([2]; probe 5 μM + 100 μM DPP-IV inhibitor, 60 minutes) | Fluorescence intensity in live cells over time ([2]; probe 10 μM, observed 60 minutes, six cell lines) | HPLC analysis after reaction with DPP-IV (DPP-IV; FIG. 2) | Change in absorption and fluorescence spectrum on addition of DPP-IV (DPP-IV; compound concentration 3.5 μM, FIG. 1) | Structure form under neutral conditions ([1]; neutral conditions) | Fluorescence intensity in tumor areas with DPP-IV inhibitor [3] |
| --- | --- | --- | --- | --- | --- | --- | --- | --- | --- | --- | --- |
| hydroxymethyl rhodamine green [HMRG, reference compound] | 0.81 | 501 nm | 524 nm | 8.1 | 57,000 M^−1cm^−1 | – | – | – | – | – | – |
| NCC(=O)N1CCC[C@H]1C(=O)Nc1ccc2c(c1)Oc1cc(N)ccc1C21OCc2ccccc21 (stereo partly drawn) [Compound 1] | – | 496 nm | 527 nm | 5.0 | 300 M^−1cm^−1 | fluorescence intensity was lower with the probe with inhibitor added | increase in fluorescence intensity was seen over time in all of the cells | hydrolyzed and cleaved by DPP-IV | increase in the absorbance and fluorescence intensity | present mainly in a colorless, non-fluorescent, closed-ring structure | – |
| Nc1ccc2c(c1)Oc1cc(NC(=O)[C@@H]3CCCN3C(=O)[C@@H](N)CCC(=O)O)ccc1C21OCc2ccccc21 (stereo partly drawn) [Compound 2] | – | – | – | – | – | – | – | – | – | – | increase in fluorescence intensity was not seen in tumor areas |
